Assay results from patent publication US20100062492A1, “Method For Preparing Icariside II, Cosmetic Composition Containing The Same and the Use Thereof For Skin Whitening” (Amorepacific Corporation, priority 2006, published 2010).

What was measured:
[1] = test system: alpha-glucosidase (Sigma); assay: Test of alpha-glucosidase inhibitory effect; format: biochemical; conditions: 0.01 ml of 10 mg/ml sample; 50 U/ml alpha-glucosidase; 5 mM p-nitrophenyl-α-D-glucopyranoside, 37° C., 5 minutes; absorbance at 405 nm; untreated group = 100.0
Protocol: In this regard, the deoxynojirimycin was used as a positive control group. Each of the samples was measured for absorbance at 405 nm to determine initial absorbance, and 0.05 ml of 5 mM p-nitrophenyl-α-D-glucopyranoside as a substrate was added thereto and subjected to an enzymatic reaction at 37° C. for 5 minutes. Then, each sample was measured for absorbance at 405 nm, and the enzyme activity inhibition thereof was calculated according to Math Figure 1. Alpha-glucosidase activity inhibition (%)=100−(absorbance of each test sample/absorbance of control group×100) [Math Figure 1]

[2] = test system: tyrosinase in human melanoma cell HM3KO cells; assay: Effect on glycosylation of human melanoma cell tyrosinase (endoglycosidase H digestion, electrophoresis, immunodetection); format: cell-based; conditions: HM3KO cells cultured to confluency with 0.05% sample; about 72 kD = normally glycosylated, about 60 kD = glycosylation inhibited
Protocol: In order to examine the effect of icariside II on the glycosylation of tyrosinase in human melanoma cells, the following test was carried out. First, human melanoma cell HM3KO cells (Y. Funasaka, Department of dermatology, Kobe university school of medicine, 5-1 Kusunoki-cho 7-chrome, Chuo-ku, Kobe 650, Japan) were cultured in a minimum essential medium (MEM), containing 10% bovine fetal serum, under conditions of 37° C. and 5% CO2. The cultured cells were placed in 75 cm^2 flasks at a cell density of 3×10^5 cells and left to stand overnight, such that the cells adhered to the flask wall. From the next day, the medium was replaced with a fresh medium, containing each of icariin icariside II of Example 1 and deoxynojirimycin in an amount of 0.05%. Herein, the deoxynojirimycin was used as a positive control group. The medium was replaced with a fresh medium containing each of the samples at a 1-2-day interval, and the cells were cultured to confluency in the flasks. When the cells reached confluency, the cells were collected, added to lysis buffer (2% CHAPS in 50 mM Hepes and 200 mM NaCl, pH 7.5, protease inhibitors) and ultrasonically disrupted. The disrupted cell solution was centrifuged at 4° C. and 12000 rpm for 10 minutes, unbroken cells and melanin were separated and removed, and only the supernatant was collected. Endoglycosidase H (125 units) was added to the supernatant (protein amount: […]), and the supernatant was subjected to an enzymatic reaction at 37° C. for 1 hour. Then, proteins in the supernatant were separated according to size by electrophoresis. Among the proteins separated by electrophoresis, tyrosinase could be observed by an immune reaction with an antibody. […]

[3] = test system: human skin; assay: Test of whitening effect on human skin after UVB-induced blackness; format: in vivo; conditions: 1% solution in 1,3-butyleneglycol:ethanol=7:3 applied to UVB-irradiated upper arm of 12 healthy men, 10 weeks; ΔL* higher than about 1.5 = whitening effect
Text: First, a perforated opaque tape having a diameter of 1.5 cm was attached to the upper arm of each of 12 healthy men. Then, UV rays (UVB) were irradiated to each of the subjects at a dose 1.5-2 times higher than the minimal erythema dose of each subject, thus inducing skin's blackness.
After the UV irradiation, each of a 1% solution of icariside (1,3-butyleneglycol:ethanol=7:3, as a vehicle), prepared in Example 1, a 1% solution of hydroquinone, a 1% solution of vehicle (negative control group), was applied to the skin of each subject. […] The skin color was measured with a colorimeter (Minolta, Japan) at a 1-week interval.
ΔL*=L* value at time point of completion of application−L* value at time point of start of application [Math Figure 2]

Structure (SMILES)	Activity inhibition (%) [1] [%]	size of tyrosinase after endoglycosidase H treatment (FIG. 1) [2]	Lightless (ΔL*) of skin color [3]
COc1ccc(-c2oc3c(CC=C(C)C)c(O)cc(O)c3c(=O)c2O[C@@H]2O[C@H](C)[C@@H](O)[C@H](O)[C@@H]2O)cc1 [Example 5, icariside II]	37.8		
COc1ccc(-c2oc3c(CC=C(C)C)c(O[C@@H]4O[C@H](CO)[C@@H](O)[C@H](O)[C@H]4O)cc(O)c3c(=O)c2O[C@@H]2O[C@@H](C)[C@H](O)[C@@H](O)[C@H]2O)cc1 [Icariin, icariin, reference compound]	98.8	about 72 kD	
COc1ccc(-c2oc3c(CC=C(C)C)c(O)cc(O)c3c(=O)c2O[C@@H]2O[C@H](C)[C@@H](O)[C@H](O)[C@@H]2O)cc1 [Example 3, icariside II]	37.5		
COc1ccc(-c2oc3c(CC=C(C)C)c(O)cc(O)c3c(=O)c2O[C@@H]2O[C@H](C)[C@@H](O)[C@H](O)[C@@H]2O)cc1 [Example 2, icariside II]	38.8		
Oc1ccc(O)cc1 [Hydroquinone, hydroquinone, reference compound]			1.90 ± 0.11
OC[C@H]1NC[C@H](O)[C@@H](O)[C@@H]1O [Deoxynojirimycin, deoxynojirimycin, reference compound]	41.1	about 60 kD	
COc1ccc(-c2oc3c(CC=C(C)C)c(O)cc(O)c3c(=O)c2O[C@@H]2O[C@H](C)[C@@H](O)[C@H](O)[C@@H]2O)cc1 [Example 4, icariside II]	37.9		
COc1ccc(-c2oc3c(CC=C(C)C)c(O)cc(O)c3c(=O)c2O[C@@H]2O[C@H](C)[C@@H](O)[C@H](O)[C@@H]2O)cc1 [Example 1, icariside II]	38.2	about 60 kD	1.97 ± 0.25
